Source: paper PMC5020691, “Cell wall degradation is required for normal starch mobilisation in barley endosperm” (Scientific Reports, 2016)
Values belong to the compound of their own block, whether it stands above or below them.

Tests used:
Agl97 (maltase) [1] = target: T1, Agl97 (maltase) (Hordeum vulgare, UniProt Q9LLY2); assay: 4-nitrophenol release, absorbance […] nm; type: biochemical; details: 0.6 mM, 50 mM sodium acetate pH 4.5, 5 mM CaCl2, 37 °C
T1 construct: purified recombinant
T1 sequence (Q9LLY2 24-879): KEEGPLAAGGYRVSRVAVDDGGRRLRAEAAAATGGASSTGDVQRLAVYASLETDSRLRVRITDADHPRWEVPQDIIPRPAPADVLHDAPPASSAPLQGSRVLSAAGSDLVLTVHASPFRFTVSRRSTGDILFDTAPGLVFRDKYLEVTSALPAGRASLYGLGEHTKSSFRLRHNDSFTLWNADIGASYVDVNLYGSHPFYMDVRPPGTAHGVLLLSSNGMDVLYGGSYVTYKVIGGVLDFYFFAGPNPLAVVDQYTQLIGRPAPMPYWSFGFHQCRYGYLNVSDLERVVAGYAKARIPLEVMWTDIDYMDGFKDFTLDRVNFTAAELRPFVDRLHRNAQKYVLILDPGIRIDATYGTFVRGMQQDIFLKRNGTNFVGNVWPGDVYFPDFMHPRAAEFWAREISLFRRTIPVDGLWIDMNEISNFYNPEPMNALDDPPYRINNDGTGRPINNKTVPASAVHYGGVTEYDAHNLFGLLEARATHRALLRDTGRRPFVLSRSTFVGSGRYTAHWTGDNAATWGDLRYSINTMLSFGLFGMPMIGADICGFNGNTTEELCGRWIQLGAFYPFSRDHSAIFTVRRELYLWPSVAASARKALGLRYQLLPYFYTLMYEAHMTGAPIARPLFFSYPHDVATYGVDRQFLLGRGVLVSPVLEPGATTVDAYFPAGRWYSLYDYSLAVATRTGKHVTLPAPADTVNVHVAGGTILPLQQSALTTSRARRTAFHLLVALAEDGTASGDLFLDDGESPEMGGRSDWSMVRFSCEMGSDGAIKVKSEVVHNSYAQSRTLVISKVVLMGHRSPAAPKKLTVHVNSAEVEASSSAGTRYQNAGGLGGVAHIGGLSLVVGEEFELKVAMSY

Agl97 (maltase) [2] = target: T1, Agl97 (maltase); assay: inhibition of pNPG hydrolysis, absorbance […] nm; type: biochemical; details: 0.01-100 µM LAB; 0.6 mM pNPG, 50 mM sodium acetate pH 4.5, 5 mM CaCl2, 37 °C
[3] = target: AXAH activity of barley endosperm (arabinoxylan arabinofuranohydrolase, endogenous) (barley (endogenous in endosperm of cv NFC Tipple)); assay: SEC; endosperm extracts of seedlings at 4-10 dpi on a Sephacryl size exclusion column in 50 mM Tris/HCl pH 7.5, 150 mM NaCl; fractions assayed for enzyme activity; size estimated against protein standards

Compound: O=[N+]([O-])c1ccc(O[C@H]2O[C@H](CO)[C@@H](O)[C@H](O)[C@H]2O)cc1 [4-nitrophenyl α-D-glucopyranoside]
4-nitrophenol release, absorbance 405 nm (Agl97 (maltase) [1]): Purified recombinant Agl97 was assayed with pNPG

Compound: OC[C@@H]1NC[C@H](O)[C@H]1O [LAB, 1,4-dideoxy-1,4-imino-L-arabinitol]
% inhibition (Agl97 (maltase) [2]): LAB inhibited the activity of purified recombinant maltase (Agl97)

stoichiometry N [3]: 2
Compound: AXAH activity of barley endosperm (arabinoxylan arabinofuranohydrolase, endogenous) (enzyme)
